Test results reported in publication PMC9630261 (2022).

Key:
Assay in all cases: fluorescence quenching titration of drug with DNA
[1] = tested on: D0 (DNA, duplex) CGCGCGCGCGCG; conditions: Na+ (50 mM Na2HPO4, 100 mM NaCl), pH 7.00, 20 °C, KD corrected for stoichiometry (per site)
[2] = tested on: D1 (same sequence as G-quad) (DNA, G4) GGGCTTTTGGGC; conditions: K+ (50 mM K2HPO4, 100 mM KCl per Methods; Table S2 says phosphate sodium), pH 7.00, 20 °C, KD corrected for stoichiometry (per site)
[3] = tested on: D2 (DNA, G4) GGTTGGTGTGGTTGG; conditions: K+ (50 mM K2HPO4, 100 mM KCl per Methods; Table S2 says phosphate sodium), pH 7.00, 20 °C, KD corrected for stoichiometry (per site)
[4] = tested on: D0-thioate (D0-PS) (DNA, duplex, phosphorothioate at all 11 linkages) CGCGCGCGCGCG; conditions: in serum (mouse serum), 37 °C, KD corrected for stoichiometry (per site)
[5] = tested on: D0-L-thioate (DNA, duplex, phosphorothioate at all 23 linkages) CGCGCGCGCGCGCGCGCGCGCGCG; conditions: in serum (mouse serum), 37 °C, KD corrected for stoichiometry (per site)
[6] = tested on: D0-L-thioate-C16 (DNA, duplex, phosphorothioate at all 23 linkages) CGCGCGCGCGCGCGCGCGCGCGCG; conditions: in serum (mouse serum), 37 °C, KD corrected for stoichiometry (per site)
[7] = tested on: Q0 (DNA, aptamer) GGCGACAAGGAAAATCCTTCAACGAAGTGGGTCGCC; conditions: Na+ (50 mM NaH2PO4, adjusted with NaOH); pH 7.00, 20 °C; KD corrected for stoichiometry (per site)
[8] = tested on: Q1 (DNA, aptamer) GACAAGGAAAATCCTTCAACGAAGTGGGTCG; conditions: Na+ (50 mM NaH2PO4, adjusted with NaOH); pH 7.00, 20 °C; KD corrected for stoichiometry (per site)
[9] = tested on: Q2 (DNA, aptamer) GGCGACAAGGAAAATCCTTTCACGAAGTGGGTCGCCG; conditions: Na+ (50 mM NaH2PO4, adjusted with NaOH); pH 7.00, 20 °C; KD corrected for stoichiometry (per site)

| SMILES | KD [1] [nM] | KD [2] [nM] | KD [3] [nM] | KD [4] [nM] | KD [5] [nM] | KD [6] [nM] | KD [7] [nM] | KD [8] [nM] | KD [9] [nM] |
| --- | --- | --- | --- | --- | --- | --- | --- | --- | --- |
| COc1cccc2c1C(=O)c1c(O)c3c(c(O)c1C2=O)C[C@@](O)(C(=O)CO)C[C@@H]3O[C@H]1C[C@H](N)[C@H](O)[C@H](C)O1 | 133 ± 20 | 703 ± 80 | 3760 ± 300 | 1020 ± 20 | 592 ± 100 | 578 ± 100 | – | – | – |
| C=C[C@H]1CN2CC[C@H]1C[C@H]2[C@H](O)c1ccnc2ccc(OC)cc12 | – | – | – | – | – | – | 89.7 ± 10 | 198 ± 6 | 2740 ± 200 |
